Test results from paper PMC10999543, “Identification of kinase modulators as host-directed therapeutics against intracellular methicillin-resistant Staphylococcus aureus” (Frontiers in Cellular and Infection Microbiology, 2024).
Like-named read-outs stand apart in the source and are kept apart here.

Assays:
[1] = tested on: intracellular MRSA; format: cell-based, Staphylococcus aureus; details: for z-scoreMRSA+ mean: mean of 3 replicates; for z-scoreMRSA+ rep 1 / %GFP+ rep 1: replicate 1; for z-scoreMRSA+ rep 2 / %GFP+ rep 2: replicate 2; for z-scoreMRSA+ rep 3 / %GFP+ rep 3: replicate 3
Protocol: (§1) The cells were resuspended in cell culture medium without antibiotics, seeded with 10,000 cells/well into Costar flat-bottom 96-well plates (Corning, Amsterdam, the Netherlands), and were incubated overnight at 37°C/5% CO2. The next day, the bacteria were centrifuged at ≥1800 g for 15 min and resuspended in cold PBS + 5 mM ethylenediaminetetraacetic acid (EDTA). The number of CFUs present in the bacterial suspension was estimated from the optical density at 600 nm (OD600) by assuming 8x10^8 CFUs to be present in a bacterial suspension with OD600 = 1, based on prior titrations. The bacterial suspension was diluted in cell culture medium without antibiotics and added to the cells. Accuracy of the multiplicity of infection (MOI) was validated by plating serial dilutions of the MRSA inoculums on Difco TS agar plates (BD Biosciences). The calculated mean MOI throughout all experiments was 6.8 ± 4.6 (mean ± SD). Infected cells were centrifuged for 3 min at 150 g and incubated for 1 hour at 37°C/5% CO2. Next, the cells were incubated with fresh cell culture medium supplemented with 30 µg/ml gentamicin sulphate (Lonza BioWhittaker, Basel, Switzerland) for 15 min at 37°C/5% CO2 to kill residual extracellular bacteria. Infected cells were incubated overnight at 37°C/5% CO2 in cell culture medium in the presence of kinase inhibitors and 5 µg/ml gentamicin sulphate-containing medium to prevent the growth of extracellular bacteria. The solvent of the compounds, DMSO, was used at equal % v/v as a negative control. For the screen, each compound was tested in triplicate, on separate cell culture plates, resulting in triplicate values for each kinase inhibitor.
(§2) HeLa cells were harvested by trypsinization and fixed with 1% paraformaldehyde. Samples were measured on a FACSLyric with HTS extension (BD Biosciences). Flow cytometry data were analysed using FlowJo version 10 (TreeStar, Ashland, OR, USA). HeLa cells positive for GFP were gated to calculate the percentage of MRSA-infected cells. The cell count was used as surrogate readout of cell viability.
To identify potential “hit” compounds, the flow cytometry data were used to calculate standard z-scores using z = (x-μ)/σ – zneg, where x is total event count or the percent of GFP-positive cells from a single well, μ is the mean from wells of the plate, σ is the standard deviation of the plate and zneg is the mean z-score of the negative control of the plate (i.e., DMSO) ([Korbee et al., 2018]). To minimize the possibility that the presence of extreme values on a plate affected the z-scores, raw values that deviated two-fold from the negative controls were excluded when calculating plate means and standard deviations as used in the aforementioned formula. Compounds were considered a “hit” when z-scoreMRSA+ ≤ -2 and z-scoreHeLa ≥ -3 for cell count. In cases where compounds were screened twice, the average values were used to select hit compounds.

[2] = tested on: HeLa cells; experiment: Compound screen by flow cytometry: HeLa cell count as surrogate readout of cell viability (z-scoreHeLa); format: cell-based, human; details: for z-scoreHeLa mean: mean of 3 replicates; for z-scoreHeLa rep 1 / cell count rep 1: replicate 1; for z-scoreHeLa rep 2 / cell count rep 2: replicate 2; for z-scoreHeLa rep 3 / cell count rep 3: replicate 3
Protocol: as §1, §2
To minimize the possibility that the presence of extreme values on a plate affected the z-scores, raw values that deviated two-fold from the negative controls were excluded when calculating plate means and standard deviations as used in the aforementioned formula. Compounds were considered a “hit” when z-scoreMRSA+ ≤ -2 and z-scoreHeLa ≥ -3 for cell count. In cases where compounds were screened twice, the average values were used to select hit compounds.

[3] = PKIS compound screen, Yes/No call
[4] = PKIS compound screen, Yes/No call (effect without cell death)
[5] = PKIS compounds raw data, MRSA-infected HeLa cells
[6] = PKIS compounds raw data, HeLa cell count
[7] = PKIS compound screen raw data, MRSA-infected HeLa cells
[8] = Yes/No: effect without cell death
[9] = compound screen, MRSA-infected HeLa cells
[10] = PKIS compound screen raw data, HeLa cell count
[11] = compound screen, HeLa cell count
[12] = PKIS compound screen, MRSA-infected HeLa cells
[13] = PKIS compound screen, Yes/No call on z-scoreMRSA+
[14] = PKIS compound screen, HeLa cell count
[15] = PKIS compound screen, Yes/No call on z-scoreHeLa

Row | Structure (SMILES) | effect [1, 3] | hit [1, 4] | z-scoreMRSA+ mean ([1]; PKIS compound screen) | z-scoreMRSA+ rep 1 ([1]; PKIS compound screen) | z-scoreMRSA+ rep 2 ([1]; PKIS compound screen) | z-scoreMRSA+ rep 3 ([1]; PKIS compound screen) | %GFP+ rep 1 [1, 5] [%] | %GFP+ rep 2 [1, 5] [%] | %GFP+ rep 3 [1, 5] [%] | cell death [2, 3] | z-scoreHeLa mean ([2]; PKIS compound screen) | z-scoreHeLa rep 1 ([2]; PKIS compound screen) | z-scoreHeLa rep 2 ([2]; PKIS compound screen) | z-scoreHeLa rep 3 ([2]; PKIS compound screen) | %GFP+ rep 1 [1, 7] [%] | %GFP+ rep 2 [1, 7] [%] | %GFP+ rep 3 [1, 7] [%] | cell count rep 1 [2, 10] | cell count rep 2 [2, 10] | cell count rep 3 [2, 10] | further results
1 | COc1cc(N2CCN(C(C)C)CC2)ccc1Nc1nc(Nc2ccc(F)cc2C(N)=O)c2cc[nH]c2n1 [GSK1220512A] | No | No | 1.45 | 1.80 | 1.41 | 1.13 | 18.8 | 17.7 | 19.7 | No | -0.69 | -0.95 | -0.27 | -0.85 |  |  |  |  |  |  | cell count rep 1 [2, 6]: 3725; cell count rep 2 [2, 6]: 3908; cell count rep 3 [2, 6]: 5195
2 | COc1ccc(Nc2nccc(-c3ccc(NC(=O)c4cc5cc(F)ccc5[nH]4)cc3)n2)cc1 [GSK1229496A] |  |  |  |  |  |  |  |  |  |  |  |  |  |  | 23.7 | 24.4 | 20.6 | 4195 | 3679 | 5039 | effect ([1]; Yes/No call from z-scoreMRSA+): No; hit [1, 8]: No; z-scoreMRSA+ mean [1, 9]: -0.14; z-scoreMRSA+ rep 1 [1, 9]: -0.37; z-scoreMRSA+ rep 2 [1, 9]: 0.43; z-scoreMRSA+ rep 3 [1, 9]: -0.48; cell death ([2]; Yes/No call from z-scoreHeLa): No; z-scoreHeLa mean [2, 11]: -0.24; z-scoreHeLa rep 1 [2, 11]: -0.11; z-scoreHeLa rep 2 [2, 11]: -0.48; z-scoreHeLa rep 3 [2, 11]: -0.13
3 | NCCCC(NC(=O)c1cc(Br)c(-c2ccnc3[nH]ccc23)s1)c1ccccc1 (stereo not shown) [GSK1287544A] |  |  |  |  |  |  |  |  |  |  |  |  |  |  | 26.9 | 27.6 | 25.5 | 6296 | 6004 | 7754 | effect ([1]; Yes/No call from z-scoreMRSA+): No; hit [1, 8]: No; z-scoreMRSA+ mean [1, 9]: 0.86; z-scoreMRSA+ rep 1 [1, 9]: 0.38; z-scoreMRSA+ rep 2 [1, 9]: 1.21; z-scoreMRSA+ rep 3 [1, 9]: 0.99; cell death ([2]; Yes/No call from z-scoreHeLa): No; z-scoreHeLa mean [2, 11]: 1.43; z-scoreHeLa rep 1 [2, 11]: 1.40; z-scoreHeLa rep 2 [2, 11]: 1.31; z-scoreHeLa rep 3 [2, 11]: 1.59
4 | CC(C(=O)NC1CCN(c2ccnc(Nc3ccc(F)cc3)n2)C1)c1ccc(Cl)cc1 (stereo not shown) [GSK1379713A] |  |  |  |  |  |  |  |  |  |  |  |  |  |  | 27.3 | 23.1 | 24.4 | 6297 | 5528 | 7616 | effect ([1]; Yes/No call from z-scoreMRSA+): No; hit [1, 8]: No; z-scoreMRSA+ mean [1, 9]: 0.42; z-scoreMRSA+ rep 1 [1, 9]: 0.47; z-scoreMRSA+ rep 2 [1, 9]: 0.12; z-scoreMRSA+ rep 3 [1, 9]: 0.66; cell death ([2]; Yes/No call from z-scoreHeLa): No; z-scoreHeLa mean [2, 11]: 1.28; z-scoreHeLa rep 1 [2, 11]: 1.40; z-scoreHeLa rep 2 [2, 11]: 0.94; z-scoreHeLa rep 3 [2, 11]: 1.50
5 | O=C(NC1CCN(c2ccnc(Nc3ccc(F)cc3)n2)C1)c1cc2ccccc2s1 (stereo not shown) [GSK1379716A] | No | No | 0.16 | 0.26 | 0.28 | -0.07 | 28.4 | 27.5 | 26.9 | No | -0.43 | -0.58 | -1.00 | 0.28 | 18.9 | 18.2 | 21.3 | 35239 | 17173 | 16326 | z-scoreMRSA+ mean [1, 12]: -0.09; z-scoreMRSA+ rep 1 [1, 12]: 0.0322; z-scoreMRSA+ rep 2 [1, 12]: -0.33; z-scoreMRSA+ rep 3 [1, 12]: 0.0175; effect [1, 13]: No; z-scoreHeLa mean [2, 14]: -0.35; z-scoreHeLa rep 1 [2, 14]: 0.85; z-scoreHeLa rep 2 [2, 14]: -1.39; z-scoreHeLa rep 3 [2, 14]: -0.51; cell death [2, 15]: No; cell count rep 1 [2, 6]: 5074; cell count rep 2 [2, 6]: 4507; cell count rep 3 [2, 6]: 6035
6 | O=C(Nc1ccccc1F)NC1CCN(c2ccnc(Nc3ccc(F)cc3)n2)C1 (stereo not shown) [GSK1379722A] | No | No | 1.11 | 1.04 | 1.28 | 1.01 | 32.4 | 32.7 | 32.7 | No | 0.96 | 1.17 | 0.61 | 1.09 | 20.2 | 23.8 | 25.6 | 32994 | 39130 | 43503 | z-scoreMRSA+ mean [1, 12]: 1.37; z-scoreMRSA+ rep 1 [1, 12]: 0.74; z-scoreMRSA+ rep 2 [1, 12]: 1.59; z-scoreMRSA+ rep 3 [1, 12]: 1.77; effect [1, 13]: No; z-scoreHeLa mean [2, 14]: 1.08; z-scoreHeLa rep 1 [2, 14]: 1.95; z-scoreHeLa rep 2 [2, 14]: 0.81; z-scoreHeLa rep 3 [2, 14]: 0.47; cell death [2, 15]: No; cell count rep 1 [2, 6]: 7997; cell count rep 2 [2, 6]: 6922; cell count rep 3 [2, 6]: 7324
7 | COc1ccc(CNC(=O)NC2CCN(c3ccnc(Nc4ccc(OC)cc4)n3)C2)cc1 (stereo not shown) [GSK1379727A] | No | No | 1.14 | 0.96 | 1.05 | 1.40 | 32.0 | 31.5 | 34.8 | No | 0.68 | 0.99 | 0.43 | 0.62 |  |  |  |  |  |  | cell count rep 1 [2, 6]: 7697; cell count rep 2 [2, 6]: 6658; cell count rep 3 [2, 6]: 6574
8 | COc1ccc(Nc2nccc(N3CCC(NC(=O)Nc4cccc(C(C)=O)c4)C3)n2)cc1 (stereo not shown) [GSK1379731A] | No | No | 0.32 | 0.53 | 0.41 | 0.00589 | 29.8 | 28.2 | 27.3 | No | 1.12 | 1.44 | 1.25 | 0.66 | 20.9 | 21.1 | 24.3 | 33897 | 29436 | 19502 | z-scoreMRSA+ mean [1, 12]: 0.62; z-scoreMRSA+ rep 1 [1, 12]: 0.57; z-scoreMRSA+ rep 2 [1, 12]: 0.46; z-scoreMRSA+ rep 3 [1, 12]: 0.84; effect [1, 13]: No; z-scoreHeLa mean [2, 14]: 0.48; z-scoreHeLa rep 1 [2, 14]: 0.63; z-scoreHeLa rep 2 [2, 14]: 0.71; z-scoreHeLa rep 3 [2, 14]: 0.11; cell death [2, 15]: No; cell count rep 1 [2, 6]: 8450; cell count rep 2 [2, 6]: 7898; cell count rep 3 [2, 6]: 6635
